Results taken from PMC9819389, “Antiandrogenic and Estrogenic Activity Evaluation of Oxygenated and Nitrated Polycyclic Aromatic Hydrocarbons Using Chemically Activated Luciferase Expression Assays” (International Journal of Environmental Research and Public …, 2022).
“Also recorded” adds a separate entry of the source. Like-named read-outs stand apart in the source and are kept apart here. Marks after values point to notes of the source that are not given here.

Columns and labels:
human AR = molecular target: T1, human AR (Homo sapiens, UniProt P10275); experiment: AR-CALUX assay, antiandrogenic (AR antagonistic) activity, U2OS-luc cells; assay type: cell-based; set-up: host or cells: human U2OS-luc (osteoblastic osteosarcoma) cells; conditions: for REPmol (IC25): molar relative potency to flutamide, IC25-based
T1 sequence (P10275 1-920): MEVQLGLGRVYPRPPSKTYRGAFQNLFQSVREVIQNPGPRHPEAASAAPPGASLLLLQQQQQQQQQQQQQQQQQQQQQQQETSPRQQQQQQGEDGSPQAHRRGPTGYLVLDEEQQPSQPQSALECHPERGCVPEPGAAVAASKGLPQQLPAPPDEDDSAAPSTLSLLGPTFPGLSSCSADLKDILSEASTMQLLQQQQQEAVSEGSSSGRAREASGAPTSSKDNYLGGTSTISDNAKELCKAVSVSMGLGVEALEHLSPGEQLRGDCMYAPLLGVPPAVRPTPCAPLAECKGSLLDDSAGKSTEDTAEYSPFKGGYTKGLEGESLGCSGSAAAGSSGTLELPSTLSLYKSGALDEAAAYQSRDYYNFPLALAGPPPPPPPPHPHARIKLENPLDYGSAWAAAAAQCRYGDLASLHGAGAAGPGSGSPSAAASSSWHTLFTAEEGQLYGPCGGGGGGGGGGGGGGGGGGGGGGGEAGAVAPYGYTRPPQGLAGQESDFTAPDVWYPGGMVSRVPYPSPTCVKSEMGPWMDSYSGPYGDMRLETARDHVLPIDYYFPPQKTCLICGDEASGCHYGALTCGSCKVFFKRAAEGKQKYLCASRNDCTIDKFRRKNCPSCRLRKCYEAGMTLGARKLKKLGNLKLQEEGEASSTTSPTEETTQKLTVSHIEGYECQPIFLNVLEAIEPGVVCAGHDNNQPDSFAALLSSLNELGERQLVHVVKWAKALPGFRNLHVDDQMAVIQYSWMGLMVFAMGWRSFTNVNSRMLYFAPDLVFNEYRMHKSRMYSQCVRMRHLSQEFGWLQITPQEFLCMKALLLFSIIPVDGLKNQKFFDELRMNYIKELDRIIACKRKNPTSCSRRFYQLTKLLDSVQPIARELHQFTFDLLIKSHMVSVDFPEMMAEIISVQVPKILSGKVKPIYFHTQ
Description: The AR- and ER-CALUX assays for the polycyclic aromatic compounds were evaluated according to previously described methods, which used human U2OS-luc cells developed by BioDetection Systems b.v. (Amsterdam, The Netherlands). The cells are transfected stably with human AR and ER, respectively, and a luciferase reporter gene under their respective steroid receptor response elements. […] They were incubated at 37 °C in a humidified atmosphere containing 5% carbon dioxide. […] The medium was then removed, and the cells were lysed. A solution of luciferin was then added, and the luminescence intensity was measured with an ARVO™ X3 luminometer from PerkinElmer (Waltham, MA, USA). A sigmoid dose–response curve for a chemical was fitted to the Hill equation given by Equation (1) using SigmaPlot 11.0 from Systat Software Inc. (San Jose, CA, USA). y = min + (max − min)/(1 + (a1/x)^a^2)(1) where, y and x are the measured luciferase induction level and compound concentration, respectively. […] The REP values in mol base were obtained by dividing the ICs or ECs of the standard by the ICs or ECs of target compound, respectively.
All measurements were conducted in triplicate wells. They were repeated twice and trice in the AR- and ER-CALUX assays, respectively, for each concentration in dose–response curve. […] Cell viability was confirmed using 3-(4,5-dimethylthiazol-2-yl)-2,5-diphenyltetrazolium bromide (MTT) assay. If the cell viability was <80% in the positive control, the corresponding exposure dose was considered cytotoxic and excluded from the calculation.

human ER = molecular target: T2, human ER (Homo sapiens, UniProt P03372); experiment: ER-CALUX assay, estrogenic activity, U2OS-luc cells; assay type: cell-based; set-up: host or cells: human U2OS-luc (osteoblastic osteosarcoma) cells; conditions: for EC50 / REPmol (EC50): present study; for EC50: 24 h exposure; for REPmol (EC50): molar relative potency to E2, EC50-based
T2 sequence (P03372 1-595): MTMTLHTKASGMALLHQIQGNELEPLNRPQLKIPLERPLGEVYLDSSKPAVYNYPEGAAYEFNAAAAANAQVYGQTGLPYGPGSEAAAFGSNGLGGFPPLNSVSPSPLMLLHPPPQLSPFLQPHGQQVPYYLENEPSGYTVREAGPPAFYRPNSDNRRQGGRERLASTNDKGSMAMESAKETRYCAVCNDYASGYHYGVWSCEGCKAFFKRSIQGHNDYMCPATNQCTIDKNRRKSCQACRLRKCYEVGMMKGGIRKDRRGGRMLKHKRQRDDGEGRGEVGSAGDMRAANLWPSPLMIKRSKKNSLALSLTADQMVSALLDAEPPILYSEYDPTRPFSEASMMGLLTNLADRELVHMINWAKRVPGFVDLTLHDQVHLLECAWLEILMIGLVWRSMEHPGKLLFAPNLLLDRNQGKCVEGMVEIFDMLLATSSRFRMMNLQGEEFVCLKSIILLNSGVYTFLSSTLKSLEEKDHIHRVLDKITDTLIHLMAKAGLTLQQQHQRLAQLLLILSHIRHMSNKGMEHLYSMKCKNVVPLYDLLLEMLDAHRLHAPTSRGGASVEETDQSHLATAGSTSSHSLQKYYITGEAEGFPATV

AR [1] = conditions: previous study, cited from earlier work
ER [2] = test system: ER; set-up: method as in Boonen et al. [33]; conditions: previous study; relative to E2; ref Boonen et al. [33]; cited from earlier work
AR [3] = test system: AR; set-up: method as in Okamura et al. [22]; key: +, positive; conditions: cited from earlier work
ER [4] = conditions: cited from earlier work
ER [5] = test system: ER; set-up: method as in Pieterse et al. [30]; conditions: previous study; relative to E2; ref Pieterse et al. [30]; cited from earlier work
[6] = present study, 24 h exposure with 100 pM DHT (EC50 level)
[7] = previous study, ref Okamura et al. [22]
[8] = relative to flutamide, ref Alvarez-Muñoz et al. [28]
[9] = relative to flutamide, ref Pieterse et al. [30]

O=[N+]([O-])c1cc([N+](=O)[O-])c2ccc3cccc4ccc1c2c43 [1,3-DNPy, 1,3-dinitropyrene]
IC50 (human AR): 0.21 µM
inhibition of AR-mediated luciferase activity (human AR; coexposure to DHT at 10 nM (100 × EC50), compound at 3 μM): 33%
mode of AR inhibition (human AR; from coexposure to 10 nM DHT): noncompetitive
IC25 (human AR; [6]): 0.13 µM
REPmol (IC25) (human AR; present study): 0.88
EC50 (human ER): U (< 10% response of 1 nM E2)
REPmol (EC50) (human ER): U (< 10% response of 1 nM E2)

O=[N+]([O-])c1ccc2ccc3ccc([N+](=O)[O-])c4ccc1c2c34 [1,8-DNPy, 1,8-dinitropyrene]
REPmol (IC25) (human AR; present study): 0.91
REPmol (EC50) (human ER): U (< 10% response of 1 nM E2)

O=[N+]([O-])c1cc2c3ccccc3ccc2c2ccccc12 [6-NChr, 6-nitrochrysene]
IC25 (human AR; [6]): 0.039 µM
REPmol (IC25) (human AR; present study): 3.2
IC50 (human AR; read-out: IC50): 0.088 µM

O=[N+]([O-])c1ccc2c(c1)-c1cccc3cccc-2c13 [8-NFA, 8-Nitrofluoranthene]
IC25 (human AR; [6]): 0.098 µM
REPmol (IC25) (human AR; present study): 1.3
IC50 (human AR; read-out: IC50): 0.27 µM

c1ccc2cc3ccccc3cc2c1 [Ant, abthracene]
REPmol, U2OS (AR [1]; relative to flutamide, ref Marin-Kuan et al. [29]): 0.2 ^d
REPmol, VM7 (ER [2]): 8.3 × 10^−7

O=C1c2ccccc2-c2cccc3cccc1c23 [BAO, 7H-benz[de]anthracen-7-one]
REPmol, U2OS (AR [1]; relative to flutamide, ref Weiss et al. [34]): 0.014 ^c
EC50 (human ER; read-out: EC50): 16 µM

O=C1c2cccc3ccc4ccc5cccc1c5c4c23 [BPO, 6H-benzo[cd]pyren-6-one]
antiandrogenic activity (in words) (human AR; present study): not observed
EC50 (human ER): U (key: U: < 10% response of 1 nM E2; nd: not detected)
REPmol (EC50) (human ER): U (key: U: < 10% response of 1 nM E2; nd: not detected)

c1cc2ccc3ccc4ccc5cccc6c(c1)c2c3c4c56 [BPe, Benzo[ghi]perylene]
antiandrogenic activity, PC3 (AR [3]): +

O=C1c2ccccc2-c2ccc3ccccc3c21 [B[a]FO, 11H-Benzo[a]fluoren-11-one]
IC25 (human AR; [6]): 0.30 µM
REPmol (IC25) (human AR; present study): 0.43
IC50 (human AR; read-out: IC50): 0.67 µM
EC50 (human ER; read-out: EC50): 4.8 µM

c1ccc2c(c1)-c1cccc3c1c-2cc1ccccc13 [B[b]FA, benzo[b]fluoranthene]
antiandrogenic activity, PC3 (AR [3]; [7]): +

O=C1c2ccccc2-c2cc3ccccc3cc21 [B[b]FO, 11H-benzo[b]fluoren-11-one]
IC25 (human AR; [6]): 0.15 µM
REPmol (IC25) (human AR; present study): 0.81
IC50 (human AR; read-out: IC50): 0.53 µM
EC50 (human ER; read-out: EC50): 4.8 µM

c1ccc2c(c1)ccc1ccc3ccccc3c12 [B[c]Phe, Benzo[c]phenanthrene]
IC25 (human AR; [6]): 0.11 µM
REPmol (IC25) (human AR; present study): 1.0
IC50 (human AR; read-out: IC50): 0.37 µM
activation (level of the response to 1 nM E2) (human ER; at 8 μM): 27% activation at 8 μM

c1ccc2c(c1)c1cccc3ccc4cccc2c4c31 [B[e]P, benzo[e]pyrene]
antiandrogenic activity, PC3 (AR [3]; [7]): +
inhibition at 10 µM (human AR; at 10 μM, maximum soluble concentration, read-out: inhibition of AR activation): > 15%
antiandrogenic activity (in words) (human AR; present study): partial antagonist
EC50 (human ER): U (key: U: < 10% response of 1 nM E2; nd: not detected)
REPmol (EC50) (human ER): U (key: U: < 10% response of 1 nM E2; nd: not detected)

c1ccc2c3c(ccc2c1)-c1cccc2cccc-3c12 [B[j]FA, benzo[j]fluoranthene]
antiandrogenic activity, PC3 (AR [3]; [7]): +
IC25 (human AR; [6]): 0.13 µM
REPmol (IC25) (human AR; present study): 0.84
IC50 (human AR; read-out: IC50): 0.29 µM
activation (level of the response to 1 nM E2) (human ER; at 3 μM): 13% activation at 3 μM

c1ccc2cc3c(cc2c1)-c1cccc2cccc-3c12 [B[k]FA, benzo[k]fluoranthene]
REPmol, U2OS (AR [1]; [8]): 2.6 ^f
antiandrogenic activity, PC3 (AR [3]; [7]): +

c1ccc2c(c1)ccc1c3ccccc3ccc21 [Chr, Chrysene]
antiandrogenic activity, PC3 (AR [3]): +
REPmol, T47D (ER [4]): U (key: U: < 10% response of 1 nM E2; nd: not detected)

c1ccc2c(c1)cc1ccc3c4ccccc4cc4ccc2c1c43 [DB[a,h]P, dibenzo[a,h]pyrene]
REPmol, U2OS (AR [1]; [9]): <0.003 ^e
REPmol, U2OS (ER [5]): 2 × 10^−5
antiandrogenic activity (in words) (human AR; present study): not observed; also recorded: inactive

c1ccc2c(c1)cc1ccc3cc4ccccc4c4ccc2c1c34 [DB[a,i]P, dibenzo[a,i]pyrene]
antiandrogenic activity (in words) (human AR; present study): not observed; also recorded: inactive
activation (level of the response to 1 nM E2) (human ER; at 3 μM): 14% activation at 3 μM

c1ccc2c(c1)cc1ccc3cccc4c5ccccc5c2c1c34 [DB[a,l]P, dibenzo[a,l]pyrene]
IC25 (human AR; [6]): 3.6 µM
REPmol (IC25) (human AR; present study): 0.037
IC50 (human AR; read-out: IC50): 8.9 µM
EC50 (human ER): U (key: U: < 10% response of 1 nM E2; nd: not detected)
REPmol (EC50) (human ER): U (key: U: < 10% response of 1 nM E2; nd: not detected)

c1ccc2c(c1)-c1cccc3cccc-2c13 [FA, fluoranthene]
REPmol, U2OS (AR [1]; [8]): 0.96 ^f
REPmol, VM7 (ER [2]): 4.1 × 10^−7

CC(C)C(=O)Nc1ccc([N+](=O)[O-])c(C(F)(F)F)c1 [Flutamide, reference compound]
REPmol, U2OS (AR [1]; the standard itself, no reference given): 1

c1ccc2c(c1)-c1ccc3ccc4cccc5cc-2c1c3c45 [IdP, indeno[1,2,3-cd]pyrene]
REPmol, U2OS (AR [1]; [8]): 0.35 ^f
antiandrogenic activity, PC3 (AR [3]; [7]): +

O=C1c2ccccc2C(=O)c2cc3ccccc3cc21 [NCQ, 5,12-naphthacenequinone]
antiandrogenic activity (in words) (human AR; present study): not observed
EC50 (human ER): U (< 10% response of 1 nM E2)
REPmol (EC50) (human ER): U (< 10% response of 1 nM E2)

O=C1C=Cc2ccccc2C1=O [NphQ, 1,2-naphthoquinone]
antiandrogenic activity (in words) (human AR; present study): not observed

O=C1C=Cc2cccc3cccc1c23 [PhO, Phenalenone]
IC25 (human AR; [6]): 0.84 µM
REPmol (IC25) (human AR; present study): 0.12
IC50 (human AR; read-out: IC50): 2 µM
EC50 (human ER): U ^j (< 10% response of 1 nM E2)
REPmol (EC50) (human ER): U (< 10% response of 1 nM E2)

c1ccc2c(c1)ccc1ccccc12 [Phe, phenanthrene]
REPmol, U2OS (AR [1]; [9]): 0.1 ^e
REPmol, U2OS (ER [5]): <3 × 10^−9
REPmol, VM7 (ER [2]): 1.2 × 10^−6

cyclopenta[cd]pyrene [CPP]
IC25 (human AR; [6]): 0.58 µM
IC50 (human AR; present study, 24 h exposure with 100 pM DHT (EC50 level), read-out: IC50): 1.3 µM
REPmol (IC25) (human AR; present study): 0.14
